Laboratory results from patent publication US20220062299A1, “USE OF GLUCOCORTICOID STEROIDS IN PREVENTING AND TREATING CONDITIONS OF MUSCLE WASTING, AGING AND METABOLIC DISORDER” (NORTHWESTERN UNIVERSITY, priority 2018, published 2022).

Test system: aging Wildtype (WT) mice
Assay: Aging wildtype mice, 40 weeks weekly prednisone
Type: in vivo, mouse
Procedure: Dosing of metabolic and endocrine biomarkers. Glycogen was quantitated using the Glycogen Assay Kit (#ab65620; Abcam, Cambridge, Mass.) from approximately 25 mg frozen-pulverized whole tissue, following manufacturer's instructions and internal standards for calculating μg/mg values. For measurement of whole-tissue ATP/NAD^+ levels, approximately 25 mg frozen-pulverized tissue was extracted in 10% perchloric acid and neutralized in 0.75 M K2CO3, as previously described (Ramsey et al., 2009). NAD+ and ATP were measured by high-pressure liquid chromatography (HPLC) with Shimadzu LC-20A pump (Shimadzu Scientific Instr Inc, Addison, Ill.) and UV-VIS detector, using a Supelco LC-18-T column (15 cm×[…]; #58970-U; Millipore-Sigma, St Louis, Mo.). […] ATP and NAD^+ eluted as sharp peaks at 3 and 14 minutes, respectively, and were normalized to tissue weight of frozen liver tissue for calculating pmol/mg values. Corticosterone was measured in mouse serum and cortisol was measured in human serum using dedicated ELISA kits (#ADI-900-097, Enzo Life Science, Farmingdale, N.Y.; #K7430-100, BioVision, Milpitas, Calif.) according to manufacturer's instructions and internal standards to calculate ng/ml values. Insulin levels were quantitated in mouse and human serum with species-specific ELISA kits (#10-1247-01 (mouse-specific); #10-1113-01 (human-specific); Mercodia, Uppsala, Sweden), following manufacturer's instructions and internal standards to calculate ng/ml values. Free fatty acids were quantitated using Enzychrom Free Fatty Acid Assay kit (#EFFA-100; BioAssay Systems, Hayward, Calif.), following kit's instructions and standards to calculate μM (serum) and nmol/mg (tissue) values. For ketone body dosing, beta-hydroxybutyrate was quantitated using a dedicated colorimetric assay kit (#700190; Cayman Chemical, Ann Arbor, Mich.), following manufacturer's instructions and standards to calculate μM (serum) and nmol/mg (tissue) values. […] Colorimetric reactions were quantitated using a Synergy HTX multi-mode plate reader (BioTek®, Winooski, Vt.) and averaging four reads/sample at appropriate wavelengths. […]
Histology. […] Myofiber/adipocyte CSA quantitation was conducted on 400 myofibers/adipocytes per tissue per mouse. […] Area quantitation was performed by means of ImageJ (Schneider et al., 2012). Sample processing, imaging and CSA quantitation were conducted blinded to treatment groups.
Muscle function, whole-body plethysmography, echocardiography. Forelimb grip strength was monitored using a meter (Cat #1027SM; Columbus Instruments, Columbus, Ohio) blinded to treatment groups. […]

[1] = aging WT mice, weekly prednisone, 40 weeks

SMILES: C[C@]12C=CC(=O)C=C1CC[C@@H]1[C@@H]2C(=O)C[C@@]2(C)[C@H]1CC[C@]2(O)C(=O)CO [prednisone, Prednisone]
- grip strength, tetanic and specific force, and muscle mass (myofiber CSA) (aged WT mice, weekly prednisone, 40 weeks): improved
- levels of ATP, NAD+ and glycogen in muscle and heart tissues (aging WT mice, weekly prednisone 1 mg/kg i.p., 40 weeks from the age of 6 weeks): increased
- parameters of cardiac contractile function (echocardiography) [1]: improved
- parameters of respiratory function (whole-body plethysmography) [1]: improved
